In BindingDB's records for doi:10.1021/jm070849r (Pfizer, 2008):

Target: T1, 3-hydroxy-3-methylglutaryl-coenzyme A reductase (Rattus norvegicus, UniProt P51639)
T1 sequence (P51639 whole entry): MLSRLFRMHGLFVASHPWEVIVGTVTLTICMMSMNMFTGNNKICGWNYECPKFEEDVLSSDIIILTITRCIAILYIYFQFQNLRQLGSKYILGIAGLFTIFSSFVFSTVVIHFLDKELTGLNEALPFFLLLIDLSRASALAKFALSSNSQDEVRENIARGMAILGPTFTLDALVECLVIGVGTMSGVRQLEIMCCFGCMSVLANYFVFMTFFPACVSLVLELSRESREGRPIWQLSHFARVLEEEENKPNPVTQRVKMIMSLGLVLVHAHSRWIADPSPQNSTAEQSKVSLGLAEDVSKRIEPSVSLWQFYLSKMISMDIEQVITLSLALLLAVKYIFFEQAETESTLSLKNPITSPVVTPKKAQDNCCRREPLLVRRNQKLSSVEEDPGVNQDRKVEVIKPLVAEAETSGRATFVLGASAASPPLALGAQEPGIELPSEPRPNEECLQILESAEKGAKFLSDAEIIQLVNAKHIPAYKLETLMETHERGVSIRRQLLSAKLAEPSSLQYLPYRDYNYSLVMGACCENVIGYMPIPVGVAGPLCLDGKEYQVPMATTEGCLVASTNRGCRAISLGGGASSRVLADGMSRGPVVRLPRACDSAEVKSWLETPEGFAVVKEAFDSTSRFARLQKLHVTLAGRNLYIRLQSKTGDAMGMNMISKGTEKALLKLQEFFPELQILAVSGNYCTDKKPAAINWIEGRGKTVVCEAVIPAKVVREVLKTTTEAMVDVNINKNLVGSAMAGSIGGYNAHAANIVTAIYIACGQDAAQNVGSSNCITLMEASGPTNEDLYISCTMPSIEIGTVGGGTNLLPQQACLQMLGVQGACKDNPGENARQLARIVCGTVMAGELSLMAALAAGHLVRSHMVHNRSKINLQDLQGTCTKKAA
Assay: HMG-CoA Reductase Enzyme Assay and Inhibition of Cellular Cholesterol Synthesis Assay
Details: pH 7.2, 37 °C
Experimental: Enzyme Assay for HMG-CoA reductase was based on the conversion of isotopically labeled HMG-CoA to mevalonic acid using rat liver microsomes as enzyme source. The product, [14C]-mevalonic acid was lactonized and separated from excess substrate via an anion ion exchange resin column, and radioactivity was counted on a scintillation counter. The IC50 values were calculated with GraphPad software (Prism). The cellular assay EC50/IC50 values were obtained from inhibition of cholesterol synthesis in rat hepatocyte.

Structure (SMILES) | IC50 [nM] | IC50 (read-out: IC50) [nM]
CC(C)c1nc(N(C)S(C)(=O)=O)nc(-c2ccc(F)cc2)c1/C=C/[C@@H](O)C[C@@H](O)CC(=O)O | 0.3 | –
CC(C)c1c(C(=O)NCc2ccccc2)nn(-c2ccc(F)cc2)c1CC[C@@H](O)C[C@@H](O)CC(=O)O [(3R,5R)-7-[3-(benzylcarbamoyl)-1-(4-fluorophenyl)-4-(propan-2-yl)-1H-pyrazol-5-yl]-3,5-dihydroxyheptanoic acid] | 0.3 | –
CC[C@H](C)C(=O)O[C@H]1C[C@H](O)C=C2C=C[C@H](C)[C@H](CC[C@@H](O)C[C@@H](O)CC(=O)O)[C@H]21 [(3R,5R)-7-[(1S,2S,6S,8S,8aR)-6-hydroxy-2-methyl-8-{[(2S)-2-methylbutanoyl]oxy}-1,2,6,7,8,8a-hexahydronaphthalen-1-yl]-3,5-dihydroxyheptanoic acid] | 17 | –
COCc1c(C(C)C)nc(C(C)C)c(/C=C/[C@@H](O)C[C@@H](O)CC(=O)O)c1-c1ccc(F)cc1 [(3R,5S,6E)-7-[4-(4-fluorophenyl)-5-(methoxymethyl)-2,6-bis(propan-2-yl)pyridin-3-yl]-3,5-dihydroxyhept-6-enoic acid] | 1.7 | –
Cc1ccc(CNC(=O)c2nn(-c3ccc(F)cc3)c(CC[C@@H](O)C[C@@H](O)CC(=O)O)c2C(C)C)cc1 [pyrazole-based inhibitor, 35] | 0.9 | –
CC(C)c1c(C(=O)N(C)Cc2cccc(F)c2F)nn(-c2ccc(F)cc2)c1CC[C@@H](O)C[C@@H](O)CC(=O)O [sodium (3R,5R)-7-(3-{[(2,3-difluorophenyl)methyl](methyl)carbamoyl}-1-(4-fluorophenyl)-4-(propan-2-yl)-1H-pyrazol-5-yl)-3,5-dihydroxyheptanoate] | 0.6 | –
CC(C)c1c(C(=O)N(C)Cc2ccc(F)cc2F)nn(-c2ccc(F)cc2)c1CC[C@@H](O)C[C@@H](O)CC(=O)O [sodium (3R,5R)-7-(3-{[(2,4-difluorophenyl)methyl](methyl)carbamoyl}-1-(4-fluorophenyl)-4-(propan-2-yl)-1H-pyrazol-5-yl)-3,5-dihydroxyheptanoate] | 2.1 | –
CC(C)c1c(C(=O)NCc2cccc(C#N)c2)nn(-c2ccc(F)cc2)c1CC[C@@H](O)C[C@@H](O)CC(=O)O [sodium (3R,5R)-7-(3-{[(3-cyanophenyl)methyl]carbamoyl}-1-(4-fluorophenyl)-4-(propan-2-yl)-1H-pyrazol-5-yl)-3,5-dihydroxyheptanoate] | 1.4 | –
COCc1cccc(CNC(=O)c2nn(-c3ccc(F)cc3)c(CC[C@@H](O)C[C@@H](O)CC(=O)O)c2C(C)C)c1 [sodium (3R,5R)-7-[1-(4-fluorophenyl)-3-({[3-(methoxymethyl)phenyl]methyl}carbamoyl)-4-(propan-2-yl)-1H-pyrazol-5-yl]-3,5-dihydroxyheptanoate] | 0.7 | –
CC(C)c1c(C(=O)N2CCCCC2c2ccccc2)nn(-c2ccc(F)cc2)c1CC[C@@H](O)C[C@@H](O)CC(=O)O (stereo partly drawn) [sodium (3R,5R)-7-[1-(4-fluorophenyl)-3-[(2-phenylpiperidin-1-yl)carbonyl]-4-(propan-2-yl)-1H-pyrazol-5-yl]-3,5-dihydroxyheptanoate] | 1.1 | –
CC(C)c1c(C(=O)N2CCCC2c2ccccc2)nn(-c2ccc(F)cc2)c1CC[C@@H](O)C[C@@H](O)CC(=O)O (stereo partly drawn) [sodium (3R,5R)-7-[1-(4-fluorophenyl)-3-[(2-phenylpyrrolidin-1-yl)carbonyl]-4-(propan-2-yl)-1H-pyrazol-5-yl]-3,5-dihydroxyheptanoate] | 4 | –
CC(C)c1c(C(=O)N2CCCC(c3ccccc3)C2)nn(-c2ccc(F)cc2)c1CC[C@@H](O)C[C@@H](O)CC(=O)O (stereo partly drawn) [sodium (3R,5R)-7-[1-(4-fluorophenyl)-3-[(3-phenylpiperidin-1-yl)carbonyl]-4-(propan-2-yl)-1H-pyrazol-5-yl]-3,5-dihydroxyheptanoate] | 0.4 | –
CC(C)c1c(C(=O)N(C)Cc2ccccc2F)nn(-c2ccc(F)cc2)c1CC[C@@H](O)C[C@@H](O)CC(=O)O [sodium (3R,5R)-7-[1-(4-fluorophenyl)-3-{[(2-fluorophenyl)methyl](methyl)carbamoyl}-4-(propan-2-yl)-1H-pyrazol-5-yl]-3,5-dihydroxyheptanoate] | 0.5 | –
CC(C)c1c(C(=O)N(C)Cc2cccc(F)c2)nn(-c2ccc(F)cc2)c1CC[C@@H](O)C[C@@H](O)CC(=O)O [sodium (3R,5R)-7-[1-(4-fluorophenyl)-3-{[(3-fluorophenyl)methyl](methyl)carbamoyl}-4-(propan-2-yl)-1H-pyrazol-5-yl]-3,5-dihydroxyheptanoate] | 0.2 | –
CC(C)c1c(C(=O)N2CCC[C@H](c3ccccc3)C2)nn(-c2ccc(F)cc2)c1CC[C@@H](O)C[C@@H](O)CC(=O)O [sodium (3R,5R)-7-[1-(4-fluorophenyl)-3-{[(3R)-3-phenylpiperidin-1-yl]carbonyl}-4-(propan-2-yl)-1H-pyrazol-5-yl]-3,5-dihydroxyheptanoate] | 0.3 | –
CC(C)c1c(C(=O)N(C)Cc2ccc(F)cc2)nn(-c2ccc(F)cc2)c1CC[C@@H](O)C[C@@H](O)CC(=O)O [sodium (3R,5R)-7-[1-(4-fluorophenyl)-3-{[(4-fluorophenyl)methyl](methyl)carbamoyl}-4-(propan-2-yl)-1H-pyrazol-5-yl]-3,5-dihydroxyheptanoate] | 0.5 | –
CC(C)c1c(C(=O)NCc2ccc(F)cc2)nn(-c2ccc(F)cc2)c1CC[C@@H](O)C[C@@H](O)CC(=O)O [sodium (3R,5R)-7-[1-(4-fluorophenyl)-3-{[(4-fluorophenyl)methyl]carbamoyl}-4-(propan-2-yl)-1H-pyrazol-5-yl]-3,5-dihydroxyheptanoate] | 0.7 | –
COc1ccc(CN(C)C(=O)c2nn(-c3ccc(F)cc3)c(CC[C@@H](O)C[C@@H](O)CC(=O)O)c2C(C)C)cc1 [sodium (3R,5R)-7-[1-(4-fluorophenyl)-3-{[(4-methoxyphenyl)methyl](methyl)carbamoyl}-4-(propan-2-yl)-1H-pyrazol-5-yl]-3,5-dihydroxyheptanoate] | 0.3 | –
COc1ccc(CNC(=O)c2nn(-c3ccc(F)cc3)c(CC[C@@H](O)C[C@@H](O)CC(=O)O)c2C(C)C)cc1 [sodium (3R,5R)-7-[1-(4-fluorophenyl)-3-{[(4-methoxyphenyl)methyl]carbamoyl}-4-(propan-2-yl)-1H-pyrazol-5-yl]-3,5-dihydroxyheptanoate] | 0.4 | –
Cc1ccccc1CN(C)C(=O)c1nn(-c2ccc(F)cc2)c(CC[C@@H](O)C[C@@H](O)CC(=O)O)c1C(C)C [sodium (3R,5R)-7-[1-(4-fluorophenyl)-3-{methyl[(2-methylphenyl)methyl]carbamoyl}-4-(propan-2-yl)-1H-pyrazol-5-yl]-3,5-dihydroxyheptanoate] | 2.1 | 16
Cc1cccc(CN(C)C(=O)c2nn(-c3ccc(F)cc3)c(CC[C@@H](O)C[C@@H](O)CC(=O)O)c2C(C)C)c1 [sodium (3R,5R)-7-[1-(4-fluorophenyl)-3-{methyl[(3-methylphenyl)methyl]carbamoyl}-4-(propan-2-yl)-1H-pyrazol-5-yl]-3,5-dihydroxyheptanoate] | 0.6 | –
Cc1ccc(CN(C)C(=O)c2nn(-c3ccc(F)cc3)c(CC[C@@H](O)C[C@@H](O)CC(=O)O)c2C(C)C)cc1 [sodium (3R,5R)-7-[1-(4-fluorophenyl)-3-{methyl[(4-methylphenyl)methyl]carbamoyl}-4-(propan-2-yl)-1H-pyrazol-5-yl]-3,5-dihydroxyheptanoate] | 1.8 | –
CC(C)c1c(C(=O)NCc2ccc(C(=O)N(C)C)cc2)nn(-c2ccc(F)cc2)c1CC[C@@H](O)C[C@@H](O)CC(=O)O [sodium (3R,5R)-7-[3-({[4-(dimethylcarbamoyl)phenyl]methyl}carbamoyl)-1-(4-fluorophenyl)-4-(propan-2-yl)-1H-pyrazol-5-yl]-3,5-dihydroxyheptanoate] | 23 | –
CCN(Cc1ccccc1)C(=O)c1nn(-c2ccc(F)cc2)c(CC[C@@H](O)C[C@@H](O)CC(=O)O)c1C(C)C [sodium (3R,5R)-7-{3-[benzyl(ethyl)carbamoyl]-1-(4-fluorophenyl)-4-(propan-2-yl)-1H-pyrazol-5-yl}-3,5-dihydroxyheptanoate] | 5.5 | –
CC(C)c1c(C(=O)N(C)Cc2ccccc2)nn(-c2ccc(F)cc2)c1CC[C@@H](O)C[C@@H](O)CC(=O)O [sodium (3R,5R)-7-{3-[benzyl(methyl)carbamoyl]-1-(4-fluorophenyl)-4-(propan-2-yl)-1H-pyrazol-5-yl}-3,5-dihydroxyheptanoate] | 0.2 | –
CC(C)c1c(C(=O)N(Cc2ccccc2)C(C)C)nn(-c2ccc(F)cc2)c1CC[C@@H](O)C[C@@H](O)CC(=O)O [sodium (3R,5R)-7-{3-[benzyl(propan-2-yl)carbamoyl]-1-(4-fluorophenyl)-4-(propan-2-yl)-1H-pyrazol-5-yl}-3,5-dihydroxyheptanoate] | 10 | –
